Values quoted from earlier work as cited in PubChem BioAssay AID1259409 (Chemical Carcinogenesis Research Information System (CCRIS), 2018).

System: rodent chemically induced tumor inhibition, incidence and multiplicity
Assay: CCRIS tumor inhibitor studies

Structure (SMILES): CSc1ccc(O)cc1
- tumour outcome (control, treated, inhibition, significance) (Carcinogen: BENZO[A]PYRENE, 50-32-8, Dose [Inhibitor]: 0.03 MMOL/G OF DIET DAILY STARTING 7 D BEFORE AND CONTINUING THROUGH 3 D AFTER CARCINOGEN TREATMENT FOLLOWED BY OBSERVAT, Route [Inhibitor]: ORAL, Species: MOUSE, Strain/Sex: ICR/FEMALE, Target Tissue: Type of Lesion: FORESTOMACH: NEOPLASM, Dose [Carcinogen]: 1 MG IN 0.2 ML CORN OIL 2/WK FOR 4 WK, Promoter: NONE USED): 100%, 89%, 11%, not significant

Structure (SMILES): CCCOC(=O)c1cc(O)c(O)c(O)c1
- tumour outcome (control, treated, inhibition, significance) (Carcinogen: 1,2-DIMETHYLHYDRAZINE, 540-73-8, Dose [Inhibitor]: 0, 1% IN DIET BEGINNING 1 WK POST LAST CARCINOGEN DOSE AND CONTINUING FOR 36 WK (STUDY DURATION: 40 WK), Route [Inhibitor]: ORAL, Species: RAT, Strain/Sex: F344/MALE, Target Tissue: Type of Lesion: COLON: ADENOMA, Dose [Carcinogen]: 20 MG/KG 1/WK FOR 4 WK, Promoter: NONE USED): 1/20 (5%), 5/20 (25%), -400%, not calculated
- tumour outcome (control, treated, inhibition, significance) (Carcinogen: 1,2-DIMETHYLHYDRAZINE, 540-73-8, Dose [Inhibitor]: 0, 1% IN DIET BEGINNING 1 WK POST LAST CARCINOGEN DOSE AND CONTINUING FOR 36 WK (STUDY DURATION: 40 WK), Route [Inhibitor]: ORAL, Species: RAT, Strain/Sex: F344/MALE, Target Tissue: Type of Lesion: COLON: CARCINOMA, Dose [Carcinogen]: 20 MG/KG 1/WK FOR 4 WK, Promoter: NONE USED): 6/20 (30%), 6/20 (30%), 0%
- tumour outcome (control, treated, inhibition, significance) (Carcinogen: 7,12-DIMETHYLBENZ(A)ANTHRACENE, 57-97-6, Dose [Inhibitor]: 0.3% IN HIGH SATURATED FAT DIET (STUDY DURATION: 32 WK), Route [Inhibitor]: ORAL, Species: RAT, Strain/Sex: SPRAGUE-DAWLEY/FEMALE, Target Tissue: Type of Lesion: MAMMARY GLAND: PARENCHYMAL CARCINOMA, Dose [Carcinogen]: 10 MG IN 1 ML CORN OIL ONCE AT 50 D OF AGE, Promoter: NONE USED): 20/30 (67%), 8/30 (27%), 60%, not calculated
- tumour outcome (control, treated, inhibition, significance) (Carcinogen: 7,12-DIMETHYLBENZ[A]ANTHRACENE, 57-97-6, Dose [Inhibitor]: 0, 20 UMOL IN 0.4 ML ACETONE 20 MIN PRIOR TO EACH PROMOTER DOSE (STUDY DURATION: 47 WK), Route [Inhibitor]: DERMAL, Species: MOUSE, Strain/Sex: CF-1/FEMALE, Target Tissue: Type of Lesion: SKIN: CARCINOMA, Dose [Carcinogen]: 100 NMOL IN 0.2 ML ACETONE ONCE): 67%, 8%, 88%, not calculated
- tumour outcome (control, treated, inhibition, significance) (Carcinogen: 7,12-DIMETHYLBENZ[A]ANTHRACENE, 57-97-6, Dose [Inhibitor]: 0, 20 UMOL IN 0.4 ML ACETONE 20 MIN PRIOR TO EACH PROMOTER DOSE (STUDY DURATION: 47 WK), Route [Inhibitor]: DERMAL, Species: MOUSE, Strain/Sex: CF-1/FEMALE, Target Tissue: Type of Lesion: SKIN: PAPILLOMA, Dose [Carcinogen]: 100 NMOL IN 0.2 ML ACETONE ONCE): 94%, 66%, 30%, not calculated
- tumour outcome (control, treated, inhibition, significance) (Carcinogen: 7,12-DIMETHYLBENZ[A]ANTHRACENE, 57-97-6, Dose [Inhibitor]: 0.3% IN HIGH POLYUNSATURATED FAT DIET (STUDY DURATION: 32 WK), Route [Inhibitor]: ORAL, Species: RAT, Strain/Sex: SPRAGUE-DAWLEY/FEMALE, Target Tissue: Type of Lesion: MAMMARY GLAND: PARENCHYMAL CARCINOMA, Dose [Carcinogen]: 10 MG IN 1 ML CORN OIL ONCE AT 50 D OF AGE, 1X, Promoter: NONE USED): 30/30 (100%), 23/30 (77%), 23%, not calculated
- tumour outcome (control, treated, inhibition, significance) (Carcinogen: 7,12-DIMETHYLBENZ[A]ANTHRACENE, 57-97-6, Dose [Inhibitor]: 0.3% IN HIGH POLYUNSATURATED FAT DIET DAILY STARTING 29 D BEFORE CARCINOGEN TREATMENT AND CONTINUING FOR THE DURATION OF, Route [Inhibitor]: ORAL, Species: RAT, Strain/Sex: SPRAGUE-DAWLEY/FEMALE, Target Tissue: Type of Lesion: MAMMARY GLAND: ADENOCARCINOMA, Dose [Carcinogen]: 10 MG IN 1 ML STRIPPED CORN OIL ONCE AT AGE 50 D, Promoter: NONE USED): 100%, 70%, 30%, not calculated
- tumour outcome (control, treated, inhibition, significance) (Carcinogen: 7,12-DIMETHYLBENZ[A]ANTHRACENE, 57-97-6, Dose [Inhibitor]: 0.3% IN HIGH SATURATED FAT DIET DAILY STARTING 29 D BEFORE CARCINOGEN TREATMENT AND CONTINUING FOR THE DURATION OF THE S, Route [Inhibitor]: ORAL, Species: RAT, Strain/Sex: SPRAGUE-DAWLEY/FEMALE, Target Tissue: Type of Lesion: MAMMARY GLAND: ADENOCARCINOMA, Dose [Carcinogen]: 10 MG IN 1 ML STRIPPED CORN OIL ONCE AT AGE 50 D, Promoter: NONE USED): 65%, 35%, 46%, not calculated
- tumour outcome (control, treated, inhibition, significance) (Carcinogen: 7,12-DIMETHYLBENZ[A]ANTHRACENE, 57-97-6, Dose [Inhibitor]: 0.3% IN LOW FAT DIET (STUDY DURATION: 32 WK), Route [Inhibitor]: ORAL, Species: RAT, Strain/Sex: SPRAGUE-DAWLEY/FEMALE, Target Tissue: Type of Lesion: MAMMARY GLAND: PARENCHYMAL CARCINOMA, Dose [Carcinogen]: 10 MG IN 1 ML CORN OIL ONCE AT 50 D OF AGE, Promoter: NONE USED): 7/30 (23%), 4/30 (13%), 43%, not calculated
- tumour outcome (control, treated, inhibition, significance) (Carcinogen: 7,12-DIMETHYLBENZ[A]ANTHRACENE, 57-97-6, Dose [Inhibitor]: 0.3% IN LOW FAT DIET DAILY STARTING 29 D BEFORE CARCINOGEN TREATMENT AND CONTINUING FOR THE DURATION OF THE STUDY (STUDY, Route [Inhibitor]: ORAL, Species: RAT, Strain/Sex: SPRAGUE-DAWLEY/FEMALE, Target Tissue: Type of Lesion: MAMMARY GLAND: ADENOCARCINOMA, Dose [Carcinogen]: 10 MG IN 1 ML STRIPPED CORN OIL ONCE AT AGE 50 D, Promoter: NONE USED): 35%, 15%, 57%, not calculated
- tumour outcome (control, treated, inhibition, significance) (Carcinogen: 7,12-DIMETHYLBENZ[A]ANTHRACENE, 57-97-6, Dose [Inhibitor]: 1.0% IN POWDERED DIET BEGINNING 1 WK POST CARCINOGEN DOSE FOR 51 WK (STUDY DURATION: 52 WK), Route [Inhibitor]: ORAL, Species: RAT, Strain/Sex: SPRAGUE-DAWLEY/FEMALE, Target Tissue: Type of Lesion: EAR DUCT: BENIGN TUMOR, Dose [Carcinogen]: 2.5 MG/100 G BW IN 0.5 ML SESAME OIL ONCE, Promoter: NONE USED): 7/19 (37%), 3/20 (15%), 59%, not calculated
- tumour outcome (control, treated, inhibition, significance) (Carcinogen: 7,12-DIMETHYLBENZ[A]ANTHRACENE, 57-97-6, Dose [Inhibitor]: 1.0% IN POWDERED DIET BEGINNING 1 WK POST CARCINOGEN DOSE FOR 51 WK (STUDY DURATION: 52 WK), Route [Inhibitor]: ORAL, Species: RAT, Strain/Sex: SPRAGUE-DAWLEY/FEMALE, Target Tissue: Type of Lesion: MAMMARY GLAND: CARCINOMA, Dose [Carcinogen]: 2.5 MG/100 G BW IN 0.5 ML SESAME OIL ONCE, Promoter: NONE USED): 6/19 (32%), 1/20 (5%), 84%, p<0.05
- tumour outcome (control, treated, inhibition, significance) (Carcinogen: 7,12-DIMETHYLBENZ[A]ANTHRACENE, 57-97-6, Dose [Inhibitor]: 1.0% IN POWDERED DIET BEGINNING 1 WK POST CARCINOGEN DOSE FOR 51 WK (STUDY DURATION: 52 WK), Route [Inhibitor]: ORAL, Species: RAT, Strain/Sex: SPRAGUE-DAWLEY/FEMALE, Target Tissue: Type of Lesion: MAMMARY GLAND: FIBROADENOMA, Dose [Carcinogen]: 2.5 MG/100 G BW IN 0.5 ML SESAME OIL ONCE, Promoter: NONE USED): 15/19 (79%), 4/20 (20%), 75%, p<0.001

Structure (SMILES): Cc1c(C)c(N)c(C)c(C)c1N
- outcome (Carcinogen: 7,12-DIMETHYLBENZ[A]ANTHRACENE, 57-97-6, Dose [Inhibitor]: 0.1% IN POWDERED DIET BEGINNING 1 WK POST CARCINOGEN DOSE FOR 51 WK (STUDY DURATION: 52 WK), Route [Inhibitor]: ORAL, Species: RAT, Strain/Sex: SPRAGUE-DAWLEY/FEMALE, Target Tissue: Type of Lesion: EAR DUCT: BENIGN TUMOR, Dose [Carcinogen]: 2.5 MG/100 G BW IN 0.5 ML SESAME OIL ONCE, Promoter: NONE USED): 7/19 (37%), 5/17 (29%), 20, not calculated
- tumour outcome (control, treated, inhibition, significance) (Carcinogen: 7,12-DIMETHYLBENZ[A]ANTHRACENE, 57-97-6, Dose [Inhibitor]: 0.1% IN POWDERED DIET BEGINNING 1 WK POST CARCINOGEN DOSE FOR 51 WK (STUDY DURATION: 52 WK), Route [Inhibitor]: ORAL, Species: RAT, Strain/Sex: SPRAGUE-DAWLEY/FEMALE, Target Tissue: Type of Lesion: MAMMARY GLAND: CARCINOMA, Dose [Carcinogen]: 2.5 MG/100 G BW IN 0.5 ML SESAME OIL ONCE, Promoter: NONE USED): 6/19 (32%), 6/17 (35%), -12%, not calculated
- tumour outcome (control, treated, inhibition, significance) (Carcinogen: 7,12-DIMETHYLBENZ[A]ANTHRACENE, 57-97-6, Dose [Inhibitor]: 0.1% IN POWDERED DIET BEGINNING 1 WK POST CARCINOGEN DOSE FOR 51 WK (STUDY DURATION: 52 WK), Route [Inhibitor]: ORAL, Species: RAT, Strain/Sex: SPRAGUE-DAWLEY/FEMALE, Target Tissue: Type of Lesion: MAMMARY GLAND: FIBROADENOMA, Dose [Carcinogen]: 2.5 MG/100 G BW IN 0.5 ML SESAME OIL ONCE, Promoter: NONE USED): 15/19 (79%), 4/17 (24%), 71%, p<0.01
